Test results taken from PMC8615111, “Phenolic Thiazoles with Antioxidant and Antiradical Activity. Synthesis, In Vitro Evaluation, Toxicity, Electrochemical Behavior, Quantum Studies and Antimicrobial Screening” (Antioxidants, 2021).

Experiments:
[1] = NO˙ radical scavenging assay (Griess reaction); type: biochemical; conditions: 100 µL of test solution 1 mg/mL in DMSO, 150 min, pH 7.4
Protocol: Scavenging of the NO˙ radical was performed according to some adapted protocols reported in the literature, based on the nitroprusside decomposition at physiological pH and colorimetric quantification of the resulted products using the Griess reaction.
Over 200 µL of 10 mM sodium nitroprusside, 100 µL of test solutions (1 mg/mL in DMSO), and 400 µL phosphate-buffered saline (PBS, pH = 7.4) were added. The mixture was then incubated at room temperature for 150 min on a rotating shaker (GFL Gesellschaft für Labortechnik, Burgwedel, Germany). After that, 1 mL of sulfanilic acid 0.33% in 20% acetic acid was added and after 5 min, 1 mL of naphthylethylenediamine […] 0.1% was added to all test tubes. After 30 min, the absorbance of the sample, given by the chromophore (azo dye) formed during the diazotization of nitrite ions resulting from decomposition of sodium nitroprusside with sulfanilic acid and coupled with naphthylethylenediamine, was measured at 546 nm. The NO˙ radical scavenging activity of the tested compounds was calculated using Equation (3):(3) NO˙ scavenging (%)=control absorbance−sample absorbance/control absorbance×100

[2] = ABTS˙^+ radical scavenging assay; type: biochemical; conditions: for IC50: ABTS˙^+ scavenging
Protocol: The assay was based on the decolorization of green (2,2′-azinobis-(3-ethylbenzothiazoline-6-sulfonic acid) ABTS˙^+ to ABTS, on the principle reported by Re et al. and was carried out according to our previously published research.
Later, 1950 µL of ABTS˙^+ reagent was added to all cuvettes and they were shaken for well over 10 min in the dark at room temperature. The absorbance of the resulted solutions found in cuvettes was determined spectrophotometrically at λ = 734 nm. The ABTS scavenging activity of the compounds was calculated using the following Equation (1):(1) ABTS scavenging (%)=control absorbance−sample absorbance/control absorbance×100

C. albicans ATCC 102310 = experiment: Antifungal activity, modified microdilution; type: cell-based; conditions: Candida albicans, ATCC102310
Protocol: (§1) For evaluating the antimicrobial activity of the compounds, […] aerobic microbial strains were used: S. aureus ATCC 25923, S. pyogenes ATCC 19615, P. aeruginosa ATCC 27853, S. enterica ISM 83/37, S. typhimurium ATCC 14028, E. coli ATCC 8739, E. coli ATCC 25922, and C. albicans ATCC 102310 obtained from Food Biotechnology Laboratory, Life Sciences Institute, University of Agricultural Sciences, and Veterinary Medicine Cluj Napoca, where the experiment was performed. The antimicrobial activity of the compounds was determined using a modified microdilution technique, and the followed protocol was previously reported.
(§2) The antimicrobial activity of the final compounds, against seven aerobic microbial strains (S. aureus ATCC 25923, S. pyogenes ATCC 19615, P. aeruginosa ATCC 27853, S. enterica ISM 83/37, S. typhimurium ATCC 14028, E. coli ATCC 8739, E. coli ATCC 25922), and a fungal strain (C. albicans ATCC 102310), was determined using a modified microdilution technique.
(§3) The results of the antimicrobial activity evaluation of the compounds, in comparison to norfloxacin and chloramphenicol used as standard antibiotics and fluconazole used as reference antifungal, are depicted in Table 10.

P. aeruginosa ATCC 27853 = experiment: Antimicrobial activity, modified microdilution; type: cell-based; conditions: Pseudomonas aeruginosa, ATCC27853
Protocol: as §1, §2, §3

E. coli ATCC 8739 = experiment: Antimicrobial activity, modified microdilution; type: cell-based; conditions: Escherichia coli, ATCC8739
Protocol: as §1, §2, §3

E. coli ATCC 25922 = experiment: Antimicrobial activity, modified microdilution; type: cell-based; conditions: Escherichia coli, ATCC25922
Protocol: as §1, §2, §3

S. pyogenes ATCC 19615 = experiment: Antimicrobial activity, modified microdilution; type: cell-based; conditions: Streptococcus pyogenes, ATCC19615
Protocol: as §1, §2, §3

S. aureus ATCC 25923 = experiment: Antimicrobial activity, modified microdilution; type: cell-based; conditions: Staphylococcus aureus, ATCC25923
Protocol: as §1, §2, §3

[3] = test system: S. typhimurium ATCC 14028; experiment: Antimicrobial activity, modified microdilution; type: cell-based; conditions: Salmonella enterica
Protocol: as §1, §2, §3

S. enterica ISM 83/37 = experiment: Antimicrobial activity, modified microdilution; type: cell-based; conditions: Salmonella enterica, ISM83/37
Protocol: as §1, §2, §3

[4] = DPPH˙ radical scavenging by cyclic voltammetry
Protocol: The antioxidant properties were evaluated in terms of their activity against some free radicals, and other compounds reported in the literature, relevant for this purpose, such as: • ferric ions (Fe^3+)—used to test the reduction of the antioxidant character of the compounds; • DPPH˙ free radical– used to test the scavenging effect of the compounds on this radical; • hydrogen peroxide (H2O2)—used to test the scavenging effect of the synthesized molecules on this compound; • 2,2,6,6-tetramethylpiperidinyl-1-oxy (TEMPO)—used to test the scavenging effect of the synthesized molecules on this compound.
The radical scavenging properties of the novel compounds and the other antioxidants were determined using a stock DPPH˙ radical solution prepared in absolute ethanol. The antioxidant samples were mixed with DPPH˙ solution and HClO4 electrolyte and incubated in the dark for 30 min. The remaining redox activity of DPPH was measured by cycling the potential between −0.7 V and 1.2 V, with a scan rate of 0.1 V/s.
The nitrogen-centered 2-2-diphenyl-1-picrylhydrazyl radical (DPPH˙) based assay is one of the most commonly employed method to evaluate the ability of a compound to scavenge or neutralize free radicals based on the reduction of the radical.
Taking into account the redox activity of DPPH˙, its diminution by an antioxidant can also be followed by CV, which is expected to show changes in the voltammetric peaks. Figure A5 reports the electrochemical study of initial electrooxidation of DPPH˙ and the novel compounds compared to remaining peaks after their incubation for 30 min. The decrease of all the peaks after mixture incubation indicates the partial consumption of DPPH˙.

[5] = compound + DPPH, 30 min, 1st Ered
[6] = compound + DPPH, 30 min, 1st Ired
[7] = compound + DPPH, 30 min, 2nd Eox
[8] = compound alone, 2nd Ered column

SMILES: Br.Oc1ccc(/C=N/Nc2nc(-c3ccccc3)cs2)c(O)c1 [Compound 6b, (E)-2-(2,4-dihydroxybenzylidene)-1-(4-phenylthiazol-2-yl)hydrazin-1-ium bromide]
- % of NO˙ Scavenged [1]: 28.35%
- % of ABTS˙^+ Scavenged ([2]; 0.5 µg/mL): 11.67%
- % of ABTS˙^+ Scavenged ([2]; 0.75 µg/mL): 17.45%
- % of ABTS˙^+ Scavenged ([2]; 1 µg/mL): 19.83%
- % of ABTS˙^+ Scavenged ([2]; 1.5 µg/mL): 28.56%
- % of ABTS˙^+ Scavenged ([2]; 2.5 µg/mL): 42.53%
- IC50 [2]: 2.97 mg/L
- MIC (C. albicans ATCC 102310): 62.5 mg/L
- MIC (P. aeruginosa ATCC 27853): > 100 mg/L
- MIC (E. coli ATCC 8739): > 100 mg/L
- MIC (E. coli ATCC 25922): > 100 mg/L
- MIC (S. pyogenes ATCC 19615): > 100 mg/L
- MIC (S. aureus ATCC 25923): > 100 mg/L
- MIC [3]: > 100 mg/L
- MIC (S. enterica ISM 83/37): > 100 mg/L
- Iox (μA) ([4]; compound + DPPH, 30 min): 43.4 μA
- Ered (V) [4, 5]: 0.302 V
- Ired (μA) [4, 6]: −1.09 μA
- Eox (V) [4, 7]: 0.391 V
- Ered (V) ([4]; compound + DPPH, 30 min, 2nd Ered column): 0.425 V
- Ired (μA) ([4]; compound + DPPH, 30 min, 2nd Ired): −1.23 μA
- Iox (μA) ([4]; compound alone): 47.3 μA
- Eox (V) ([4]; compound alone, 2nd Eox): 0.391 V
- Ered (V) [4, 8]: 0.239 V
- Ired (μA) ([4]; compound alone, 2nd Ired): −7.045 μA

SMILES: Br.C/C(=N\Nc1nc(-c2ccccc2)cs1)c1ccc(O)cc1O [Compound 6a, (E)-2-(1-(2,4-dihydroxyphenyl)ethylidene)-1-(4-phenylthiazol-2-yl)hydrazin-1-ium bromide]
- % of NO˙ Scavenged [1]: 20.58%
- % of ABTS˙^+ Scavenged ([2]; 0.5 µg/mL): 4.75%
- % of ABTS˙^+ Scavenged ([2]; 0.75 µg/mL): 7.92%
- % of ABTS˙^+ Scavenged ([2]; 1 µg/mL): 12.68%
- % of ABTS˙^+ Scavenged ([2]; 1.5 µg/mL): 22.21%
- % of ABTS˙^+ Scavenged ([2]; 2.5 µg/mL): 36.01%
- IC50 [2]: 3.34 mg/L
- MIC (C. albicans ATCC 102310): > 100 mg/L
- MIC (P. aeruginosa ATCC 27853): 31.2 mg/L
- MIC (E. coli ATCC 8739): > 100 mg/L
- MIC (E. coli ATCC 25922): > 100 mg/L
- MIC (S. pyogenes ATCC 19615): > 100 mg/L
- MIC (S. aureus ATCC 25923): > 100 mg/L
- MIC [3]: > 100 mg/L
- MIC (S. enterica ISM 83/37): > 100 mg/L
- Iox (μA) ([4]; compound + DPPH, 30 min): 18.21 μA
- Eox (V) [4, 7]: 0.379 V
- Eox (V) ([4]; compound alone 0.5 mM in 0.1 M HClO4, 1st Eox column): 0.232 V
- Iox (μA) ([4]; compound alone 0.5 mM in 0.1 M HClO4, 1st Iox column): 4.99 μA
- Ered (V) [4, 8]: 0.193 V
- Ired (μA) ([4]; compound alone, 2nd Ired): −4.16 μA
- Eox (V) ([4]; compound alone, 3rd Eox column): 0.565 V
- Iox (μA) ([4]; compound alone, 3rd Iox column): 4.37 μA

SMILES: Br.NC(=O)c1cc(-c2csc(N/N=C/c3ccc(O)cc3O)n2)ccc1O [Compound 7b, (E)-1-(4-(3-carbamoyl-4-hydroxyphenyl)thiazol-2-yl)-2-(2,4-dihydroxybenzylidene) hydrazin-1-ium bromide]
- % of NO˙ Scavenged [1]: 26.33%
- % of ABTS˙^+ Scavenged ([2]; 0.5 µg/mL): 25.42%
- % of ABTS˙^+ Scavenged ([2]; 0.75 µg/mL): 30.15%
- % of ABTS˙^+ Scavenged ([2]; 1 µg/mL): 36.50%
- % of ABTS˙^+ Scavenged ([2]; 1.5 µg/mL): 49.20%
- % of ABTS˙^+ Scavenged ([2]; 2.5 µg/mL): 69.53%
- IC50 [2]: 1.60 mg/L
- MIC (C. albicans ATCC 102310): > 100 mg/L
- MIC (P. aeruginosa ATCC 27853): 15.6 mg/L
- MIC (E. coli ATCC 8739): > 100 mg/L
- MIC (E. coli ATCC 25922): > 100 mg/L
- MIC (S. pyogenes ATCC 19615): > 100 mg/L
- MIC (S. aureus ATCC 25923): > 100 mg/L
- MIC [3]: > 100 mg/L
- MIC (S. enterica ISM 83/37): > 100 mg/L
- Iox (μA) ([4]; compound + DPPH, 30 min): 9.076 μA
- Ered (V) [4, 5]: 0.291 V
- Ired (μA) [4, 6]: −7.43 μA
- Eox (V) [4, 7]: 0.359 V
- Iox (μA) ([4]; compound alone): 15.65 μA
- Eox (V) ([4]; compound alone, 2nd Eox): 0.342 V
- Ered (V) [4, 8]: 0.276 V
- Ired (μA) ([4]; compound alone, 2nd Ired): −2.54 μA
